Like-named read-outs stand apart in the source and are kept apart here. Ends that are not written are not given here. Peptide text beside a SMILES is read from it.
Assays:
[1] = molecular target: Recombinant human EGFR protein (Active) (ab155639) (Homo sapiens, UniProt P00533); assay: Microscale thermophoresis (MST) binding to EGFR
Protocol: It is known from the literature data that the dissociation constant of this binding interaction varies from 0.2 to 8 nM [102]. […] It is recommended that the concentration of the ligand should be at least 20× higher than the expected dissociation constant. In the experiments, the final labeled EGFR concentration was 25 nM.
MST analysis was performed using a Monolith NT.115 device, excitation color—Nano-RED, excitation power—100%, medium MST power.
Recombinant human EGFR protein (Active) (ab155639) was reconstituted with 500 μL of 0.45 μm filtered distilled water. Then, 100 nM solution of EGFR was prepared by mixing 3.6 μL of protein with 96.4 μL PBS-T (PBS with 0.05% Tween20). RED-tris-NTA 2nd Generation (5 μM) was obtained by dissolving […] of dye in 50 μL PBS-T. A solution of dye in PBS-T (50 nM) was prepared by mixing 1 μL of dye with 99 μL PBS-T. A solution of the protein (95 μL) was mixed with the solution of dye (95 μL) and incubated at room temperature for 30 min. The sample was then centrifuged for 10 min at 4 °C. The final labeled protein concentration in the assay was 25 nM.
Then, 20 μL of the ligand was transferred to PCR tube 1. Subsequently, 10 μL of the solution was transferred to PCR tube 2 and mixed by pipetting; 10 μL of the solution from PCR tube 2 was transferred to PCR tube 3 and mixed by pipetting; this procedure was repeated for PCR tubes 4–16. From PCR tube 16, 10 μL of the solution was discarded. Finally, 10 μL of labeled EGFR was added to each PCR tube and mixed by pipetting. The samples were incubated for 30 min at room temperature prior to MST assays. Analyses were performed using NanoTemper Technologies (München, Germany).

[2] = system: Primary Dermal Fibroblasts; assay: Live/dead test (proliferation and cytotoxicity); assay type: cell-based; conditions: 100 ng/mL; for percentage of live cells (in words) / live cells: live/dead assay
Protocol: In the next stage of our research, the scope of biological tests was expanded to assess the safety of the found EGF fragments. Fragments 10–22, 13–19, 22–28, 26–34, 10–15, and 10–15a were selected for further study in a live/dead assay (Figure 7, Figure 8 and Figure 9).
Primary Dermal Fibroblast (ATCC, Manassas, USA) was grown in Fibroblast Basal Media supplemented with Fibroblast Growth Kit components (ATCC, Manassas, VA, USA). The cells were cultured under standard conditions (37 °C, humidified atmosphere of 5% CO2 in air). The medium was replaced every 2–3 days (75% confluence). Cells between the third and fifth passages were used in the experiment.
To evaluate proliferation and cytotoxicity, a “live/dead” test (Viability/Cytotoxicity Kit, Molecular Probes) was used. Cells were seeded at 6 × 10^4 cells/mL/well/sample in 2 mL of Fibroblast Basal Media supplemented with Fibroblast Growth Kit components (ATCC, Manassas, VA, USA). After 24 h, the medium was completely replaced. Cells in the positive control and negative control were cultured in medium containing FGF. In the remaining samples, media without FGF and with the addition of heat-inactivated serum were used. […] During the experiment, half of the medium was changed every 2 days. […] After that time, a mixture of two fluorescent dyes was used: Calcein-AM for the staining of living cells and ethidium bromide for the labeling of dead cells.
The samples were examined using an Olympus GX 71 fluorescence microscope equipped with a digital camera (DP70) (Olympus, Evident, Tokyo, Japan). The results were submitted to one-way ANOVA analysis.

[3] = system: anti-EGF rabbit polyclonal antibodies (Abcam 9695); assay: Dot blot of cellulose-immobilized EGF decapeptides with anti-EGF polyclonal antibodies; assay type: binding;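 as to Intensity (Staining Value): higher gray value means stronger antibody binding with above 120 very strong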
Protocol: Dot blot reactions were performed using primary anti-EGF rabbit polyclonal antibodies (Abcam 9695) (Cambridge, UK) and secondary goat anti-rabbit antibodies conjugated with HRP (Abcam 205718). The procedure for using the dot blot method to analyze peptides immobilized on a cellulose matrix through a triazine linker was optimized in a previous study by the authors and ensures the elimination of non-specific impacts.
The solution was then removed, and the membranes were treated overnight at room temperature with blocking buffer (3% BSA in PBS, 40 mL, pH 7.4). The cellulose sheets were then washed with PBS buffer (40 mL, 5 min, pH 7.4). […] The membranes were then washed with Tween-80 solution in PBS (0.4%, 40 mL, 2 × 5 min) and PBS (40 mL, 5 min). Goat Anti-Rabbit IgG antibodies were conjugated with HRP (Abcam 205718, 20 μL) diluted 1:1000 in 1% BSA in PBS (20 mL, pH 7.4) and then incubated with cellulose sheets for 30 min at room temperature. The membranes were then washed with Tween-80 solution in PBS (0.4%, 40 mL, 2 × 5 min) and PBS (40 mL, 5 min). Visualization of the reactions was performed using 4-chloro-1-naphtol (Sigma–Aldrich). The cellulose sheets were placed into 0.15 mg/mL solution of 4-chloro-1-naphtol in MeOH:PBS (1:5, 15 mL) with the addition of 7.5 μL of H2O2; reaction time was 30 min. The membranes were washed with distilled water, air-dried, and scanned. In places where immunological complexes developed, blue precipitate was observed. The applied dot blot test procedure ensures the elimination of non-specific interactions. Additionally, using the same SPOT synthesis procedure, a library of type IV collagen fragments was obtained. […] The gray levels of the immunological reactions were determined using ImageJ Version 1.53n7 (https://imagej.nih.gov/ij/index.html, accessed on 17 October 2021) computer imaging software.

[4] = molecular target: T1, Recombinant human EGFR protein (Active) (ab155639) (human, UniProt P00533 25-645, labelled with RED-tris-NTA 2nd Generation dye); assay: MST; RED-tris-NTA-labelled EGFR 25 nM, ligand in a 16-step 1:1 dilution series in PBS-T, 30 min at room temperature; assay concentration of the ligand 500 μM; conditions: both partners purified
T1 construct: epidermal growth factor receptor (EGFR, ErbB-1), human, recombinant; also called EGF receptor; ErbB-1; source: bought: Abcam (ab155639), recombinant

[5] = molecular target: T1, Recombinant human EGFR protein (Active) …; assay: MST; RED-tris-NTA-labelled EGFR 25 nM, ligand in a 16-step 1:1 dilution series in PBS-T, 30 min at room temperature; assay concentration of the ligand 10 mM; conditions: both partners purified
[6] = molecular target: T1, Recombinant human EGFR protein (Active) …; assay: MST; RED-tris-NTA-labelled EGFR 25 nM, ligand in a 16-step 1:1 dilution series in PBS-T, 30 min at room temperature; assay concentration of the ligand 350 μM; conditions: both partners purified
[7] = molecular target: T1, Recombinant human EGFR protein (Active) …; assay: MST; RED-tris-NTA-labelled EGFR 25 nM, ligand in a 16-step 1:1 dilution series in PBS-T, 30 min at room temperature; assay concentration of the ligand 1 mM; conditions: both partners purified
[8] = molecular target: T1, Recombinant human EGFR protein (Active) …; assay: MST; RED-tris-NTA-labelled EGFR 25 nM, ligand in a 16-step 1:1 dilution series in PBS-T, 30 min at room temperature; assay concentration of the ligand 141 μM; conditions: both partners purified
[9] = molecular target: T1, Recombinant human EGFR protein (Active) …; assay: MST; RED-tris-NTA-labelled EGFR 25 nM, ligand in a 16-step 1:1 dilution series in PBS-T, 30 min at room temperature; assay concentration of the ligand 50 μM; conditions: both partners purified
[10] = molecular target: T1, Recombinant human EGFR protein (Active) …; assay: MST; RED-tris-NTA-labelled EGFR 25 nM, ligand in a 16-step 1:1 dilution series in PBS-T, 30 min at room temperature; assay concentration of the ligand 705 μM; conditions: both partners purified
[11] = molecular target: T1, Recombinant human EGFR protein (Active) …; assay: MST; RED-tris-NTA-labelled EGFR 25 nM, ligand in a 16-step 1:1 dilution series in PBS-T, 30 min at room temperature; assay concentration of the ligand 2.5 mM; conditions: both partners purified
[12] = molecular target: T1, Recombinant human EGFR protein (Active) …; assay: MST; RED-tris-NTA-labelled EGFR 25 nM, ligand in a 16-step 1:1 dilution series in PBS-T, 30 min at room temperature; assay concentration of the ligand 10 μM; conditions: both partners purified
[13] = molecular target: T1, Recombinant human EGFR protein (Active) …; assay: MST; RED-tris-NTA-labelled EGFR 25 nM, ligand in a dilution series in PBS-T; assay concentration of the ligand not stated for the values printed in running text; conditions: both partners purified
[14] = molecular target: T1, Recombinant human EGFR protein (Active) …; assay: MST; RED-tris-NTA-labelled EGFR 25 nM, ligand in a 16-step 1:1 dilution series in PBS-T, 30 min at room temperature; assay concentration of the ligand 5 mM; conditions: both partners purified

## CC[C@H](C)[C@H](N)C(=O)N[C@@H](CCC(=O)O)C(=O)N[C@@H](C)C(=O)N[C@@H](CC(C)C)C(=O)O [23–26] (H-IEAL-OH)
[1]; MST, assay concentration 10 mM, labeled EGFR 25 nM, read-out: Kd
  Kd: 5090 µM

## CSCC[C@H](NC(=O)[C@H](CS)NC(=O)[C@@H](NC(=O)CNC(=O)[C@H](CC(=O)O)NC(=O)[C@H](Cc1c[nH]cn1)NC(=O)[C@H](CC(C)C)NC(=O)[C@H](CS)NC(=O)[C@H](Cc1ccc(O)cc1)NC(=O)CNC(=O)[C@H](CC(=O)O)NC(=O)[C@@H](N)Cc1c[nH]cn1)C(C)C)C(=O)N[C@@H](Cc1ccc(O)cc1)C(=O)O [10–22] (H-HDGYCLHDGVCMY-OH; C-terminus assumed)
[2]; after 1 day
  percentage of live cells (in words): slightly less survivability
[2]; after 7 days
  live cells: 99.25%
[2]; after one day
  live cells: 97.13%
[1]; MST, range over the tested fragment concentrations, labeled EGFR 25 nM
  dissociation constants (range over the assay concentrations): 0.07 to 416 µM

## IGERCQ [38–43]
[1]; MST, range over the tested fragment concentrations, labeled EGFR 25 nM, read-out: Kd (range over the assay concentrations)
  Kd: 0.108 to 0.709 µM

## HDGYCL [10–15]
[2]; after 7 days
  live cells: 99.52%
[2]; after one day
  live cells: 98.73%

## CC(C)C[C@H](N)C(=O)N[C@@H](CC(=O)O)C(=O)N[C@@H](CCCCN)C(=O)N[C@@H](Cc1ccc(O)cc1)C(=O)N[C@@H](C)C(=O)N[C@@H](CS)C(=O)N[C@@H](CC(N)=O)C(=O)N[C@@H](CS)C(=O)N[C@H](C(=O)O)C(C)C [26–34] (H-LDKYACNCV-OH)
[2]; after 1 day of incubation
  number of cells (fibroblast proliferation, in words): more cells than in the medium with EGF
[2]; after 1 day
  percentage of live cells (in words): one of the highest percentages of live cells
[2]; after 7 days
  percentage of live cells (in words): one of the highest percentages of live cells

## YIEALDK [22–28]
[2]; after 1 day
  percentage of live cells (in words): slightly less survivability

## EGF: native EGF (ab9697), recombinant human EGF protein; 53-amino acid polypeptide
[2]; after 7 days of incubation
  number of cells (fibroblast proliferation, in words): induced cell growth

## VVGYIGERCQYRDL [34–47]
[1]; MST, range over the tested fragment concentrations, labeled EGFR 25 nM, read-out: dissociation constants (range over the assay concentrations)
  Kd: 0.5 to 5.92 µM

## H-YCLHDGV-OH [13–19]
[2]; after 1 day
  percentage of live cells (in words): slightly less survivability
[2]; after 7 days
  live cells: 99.30%
[2]; after one day
  live cells: 97.84%

## QYRDL [43–47]
[2]; after 7 days
  percentage of live cells (in words): highest live percentage of cells for all tested peptides
[1]
  Kd: 4.93 to 125 µM

## H-^29YACNCVVGYI^38-matrix [B9]
[3]; peptide on cellulose matrix, antibody 1:1000, 1 h room temperature
  Intensity (ability to interact with polyclonal antibodies): + (strong (+), for which the staining intensity value was in the range of 120–90)
[3]; scanned spot, 256 gray scale (ImageJ)
  Intensity (Staining Value): 91.1

B1: EGF fragment 43–47 (QYRDL) (peptide)
peptide: QYRDL
notes: EGF, human, residues 43-47; numbers count on: the mature protein; source: synthetic peptide (SPPS, Fmoc; crude, without preparative HPLC)
[4]
  Kd: 4.93 µM
[5]
  Kd: 125 µM

B2: EGF fragment 34–47 (VVGYIGERCQYRDL) (peptide)
peptide: VVGYIGERCQYRDL
notes: EGF, human, residues 34-47; numbers count on: the mature protein; source: synthetic peptide (SPPS, Fmoc; crude, without preparative HPLC)
[6]
  Kd: 1.21 µM
[7]
  Kd: 0.53 µM
[8]
  Kd: 4.62 µM
[9]
  Kd: 5.92 µM
[10]
  Kd: 2.17 µM

B3: EGF fragment 38–43 (IGERCQ) (peptide)
peptide: IGERCQ
notes: EGF, human, residues 38-43; numbers count on: the mature protein; source: synthetic peptide (SPPS, Fmoc; crude, without preparative HPLC)
[11]
  Kd: 0.108 µM
[12]
  Kd: 0.709 µM
[13]
  Kd: 0.1 to 1.8 µM
[4]
  Kd: 0.154 µM
[14]
  Kd: 0.157 µM

From article PMC10855902 (International Journal of Molecular Sciences, 2024)
